Where two headings read alike, the source gives them in different places.
How the values were obtained:
[1] = biological target: T1, human serotonin transporter (hSERT) (Homo sapiens, UniProt P31645); assay: Radioligand binding to cloned hSERT, [3H]citalopram, HEK-293 cell membranes
T1 construct: expressed in transfected cells; host or cells: HEK-293, stably transfected
Method: (§1) HEK-293 cells expressing the recombinant hSERT or hDAT were incubated with Dulbecco's modified Eagles medium (MEM) supplemented with 0.1 mM nonessential amino acid solution for MEM, 5% v/v fetal bovine serum and 1 U/mL penicillin/streptomycin solution. Cells expressing the hNET transporter were incubated with Dulbecco's modified Eagles medium supplemented with 10% v/v fetal bovine serum and 100 U/mL penicillin/streptomycin solution and 2 mM L-glutamine. The cells were grown until 70-80% confluent on 175 cm^2 flasks in a humidified 10% CO2/90% air environment at 37° C., with the selecting antibiotic Geneticin sulfate at 250 μg/mL. The cells were incubated in 10% CO2, 90% air at 37° C. and 100% humidity.
(§2) Cell membranes containing hSERT, hNET, or hDAT were prepared from the cell lines to assay ligand binding for each of the transporters. […] The washed cells were incubated for 5 minutes at 37° C. in 10 mL solution 1 containing 100 mM ethylene glycol-bis N,N,N′,N′-tetraacetic acid (EGTA). The cells were then scraped from the flask surface with a rubber spatula, placed into a centrifuge tube, and collected by centrifugation at 1000×g for 5 minutes at 4° C. The resulting supernatant was discarded, and the cell pellet was resuspended in 0.5 to1.0 mL of the appropriate binding buffer (described below). The resuspended cell pellet was homogenized using a Polytron for 10 seconds at setting 6. The resulting homogenate was centrifuged at about 36,000×g for 10 minutes at 4° C. The supernatant was discarded, and the pellet was resuspended in the same volume of the appropriate binding buffer and centrifuged again. The supernatant was discarded, and the final pellet containing cell membranes was resuspended in the appropriate binding buffer and stored at −80° C. until use.
Radioligand binding assays for the indicated transporters were performed as follows. To assess binding to the cloned hSERT, cells expressing hSERT were homogenized in 50 mM Tris-HCl with 120 mM NaCl and 5 mM KCl (pH 7.4). The binding reaction consisted of 10 μg cell membrane protein, […] [^3H]citalopram (citalopram, [N-methyl-^3H], specific activity 79.0 Ci/mmol; PerkinElmer, Boston, Mass.), and varying concentrations of either unlabeled citalopram or the test compound. A reaction to determine non-specific binding consisted of 10 μg cell membrane protein, 0.5 nM [^3H]citalopram, and 1 μM final concentration of unlabeled citalopram. The reactions were incubated at 22° C. for 60 minutes. Following incubation, the reactions were terminated by rapid filtration through separate GF/B filter strips pretreated with 0.2% polyethylenimine in a 48-well Brandel cell harvester. The cell membrane-containing filter strips were then rinsed five times with ice-cold 0.9% NaCl. After rinsing, individual filters were cut from the strip and placed in a scintillation vial containing 6.5 mL of Redi-Safe (Beckman-Coulter, Fullerton, Calif.).
(§3) The program was modified to calculate the Hill coefficient (nH). Data are presented as geometric mean±S.E.M. of at least three independent experiments. One-component models and two-component models were compared using the root mean square error of each fit and the F test.

[2] = biological target: T2, human dopamine transporter (hDAT) (Homo sapiens, UniProt Q01959); assay: Radioligand binding to cloned hDAT, [3H]WIN35428, HEK-293 cell membranes
T2 construct: expressed in transfected cells; host or cells: HEK-293, stably transfected
Method: as §1, §2
To assess binding to the cloned hDAT, cells expressing hDAT were homogenized in 50 mM Tris-HCl with 120 mM NaCl (pH 7.4). The binding reaction contained 15 μg cell membrane protein, 1 nM [^3H]WIN35428 (WIN35428, [N-methyl-^3H], specific activity 85.9 Ci/mmol; PerkinElmer, Boston, Mass.), and varying concentrations of either unlabeled WIN35428 or the test compound. A reaction to determine non-specific binding contained 15 μg cell membrane protein, 1 nM [^3H]WIN35428, and 10 μM final concentration of unlabeled WIN35428. The reactions were incubated at 22° C. for 1 hour. Following incubation, the reactions were terminated by rapid filtration through separate GF/B filter strips pretreated with 0.2% polyethylenimine in a 48-well Brandel cell harvester. The cell membrane-containing filter strips were then rinsed five times with ice-cold 0.9% NaCl. After rinsing, individual filters were cut from the strip and placed in a scintillation vial containing 6.5 mL of Redi-Safe (Beckman-Coulter, Fullerton, Calif.).
as §3

hSERT, hNET, hDAT = assay: Human transporter binding: rank order and range of potency over the three transporters; conditions: for Potency (rank-order of potency of binding; S = hSERT, N = hNET, D = hDAT): from KD values; for Potency Range (difference between most potent and least potent binding): ratio of KD over hSERT, hNET, hDAT
Source text: as §3

[3] = system: human serotonin, norepinephrine and dopamine transporters; assay: Transport into cells expressing human transporters: rank order of potency, comparison with rat; format: cell-based; conditions: from Ki values; S = 5-HT, N = NE, D = DA
[4] = biological target: T3, rat serotonin transporter, synaptosomal preparations (Rattus norvegicus, UniProt P31652); assay: Inhibition of [3H]5-HT reuptake in rat brain synaptosomes (frontal cortex); format: biochemical; conditions: Geometric Mean ± SEM; rat brain synaptosomes; read-out: Inhibitor Constant (Ki), 5HT transport
T3 construct: from tissue; host or cells: rat frontal cortex synaptosomes (male Sprague-Dawley)
Method: (§4) The dissected tissues were separately homogenized in 20 volumes (cortical) or 40 volumes (striatal) of ice-cold, oxygenated HEPES buffer 0.32 M sucrose containing 11 mM glucose (pH 7.4) in a glass Potter-Elvehjem homogenizer with Teflon® pestle (8 strokes, 900 rpm). The homogenates were centrifuged at 1,000×g for 10 minutes. The resulting supernatant was decanted and further centrifuged at 20,000×g for 20 minutes at 4° C. […] The synaptosomal protein concentration was determined by using the BCA assay (Pierce Biotechnology Inc, Rockford, Ill.), according to the manufacturer's instructions. Synaptosomal protein (1.0-2.5 mg) was suspended in 1 mL oxygenated incubation buffer as defined above. Test amine compound was pre-incubated with the synaptosomal preparation for 30 minutes at 37° C. in a shaking water bath (80 oscillations/minute).

[5] = biological target: T4, rat norepinephrine transport, synaptosomal preparations (Rattus norvegicus, UniProt Q63380); assay: Inhibition of [3H]NE reuptake in rat brain synaptosomes (occipital cortex); format: biochemical; conditions: Geometric Mean ± SEM; rat brain synaptosomes; read-out: Inhibitor Constant (Ki), NE transport
T4 construct: from tissue; host or cells: rat occipital cortex synaptosomes (male Sprague-Dawley)
Method: as §4

[6] = biological target: T5, rat dopamine transporter, synaptosomal preparations (Rattus norvegicus, UniProt P23977); assay: Inhibition of [3H]DA reuptake in rat brain synaptosomes (striatum); format: biochemical; conditions: Geometric Mean ± SEM; rat brain synaptosomes; read-out: Inhibitor Constant (Ki), DA transport
T5 construct: and striatal tissues for transport of dopamine; from tissue; host or cells: rat striatum synaptosomes (male Sprague-Dawley)
Method: as §4

[7] = system: rat 5-HT, NE and DA transport, synaptosomal preparations; assay: Rat brain synaptosomal transport: rank order of potency; format: biochemical; conditions: from Ki values; S = 5HT, N = NE, D = DA
Method: as §4

[8] = biological target: human norepinephrine transporter (Homo sapiens, UniProt P23975); assay: Inhibition of [3H]NE transport into HEK-293 cells expressing the human transporter; conditions: read-out: Inhibitor Constant (Ki), NE transport; Geometric Mean ± SEM; HEK-293 whole cells
[9] = biological target: human dopamine transporter (Homo sapiens, UniProt Q01959); assay: Inhibition of [3H]DA transport into HEK-293 cells expressing the human transporter; conditions: read-out: Inhibitor Constant (Ki), DA transport; Geometric Mean ± SEM; HEK-293 whole cells
[10] = biological target: human serotonin transporter (Homo sapiens, UniProt P31645); assay: Inhibition of [3H]5-HT transport into HEK-293 cells expressing the human transporter; conditions: read-out: Inhibitor Constant (Ki), 5-HT transport; Geometric Mean ± SEM; HEK-293 whole cells
[11] = biological target: T6, human norepinephrine transporter (hNET) (Homo sapiens, UniProt P23975); assay: Radioligand binding to cloned hNET, [3H]nisoxetine, HEK-293 cell membranes
T6 construct: expressed in transfected cells; host or cells: HEK-293, stably transfected
Method: as §1, §2
To assess binding to the cloned hNET, cells expressing hNET were homogenized in 50 mM Tris-HCl with 300 mM NaCl and 5 mM KCl (pH 7.4). The binding reaction consisted of 5 μg cell membrane protein, 0.5 nM [^3H]nisoxetine (nisoxetine HCl, [N-methyl-^3H], specific activity 82.0 Ci/mmol; Amersham, Arlington Hts., Ill.), and varying concentrations of either unlabeled nisoxetine or the test compound. A reaction to determine non-specific binding consisted of 5 μg cell membrane protein, 0.5 nM [^3H]nisoxetine, and 1 μM final concentration of unlabeled nisoxetine. The reactions were incubated at 22° C. for 60 minutes. Following incubation, the reactions were terminated by rapid filtration through separate GF/B filter strips pretreated with 0.2% polyethylenimine in a 48-well Brandel cell harvester. The cell membrane-containing filter strips were then rinsed five times with ice-cold 0.9% NaCl. After rinsing, individual filters were cut from the strip and placed in a scintillation vial containing 6.5 mL of Redi-Safe (Beckman-Coulter, Fullerton, Calif.).
as §3

CYP2D6 = biological target: T7, CYP2D6 (Homo sapiens, UniProt P10635); assay: CYP2D6 inhibition, CYP2D6/AMMC kit (BD Biosciences), fluorescent substrate; format: in vitro ADME; conditions: recombinant human P450, AMMC substrate; read-out: Mean CYP2D6 (IC50)
T7 construct: purchased BD Biosciences 459200
Source text: This kit includes the use of a fluorescent P450 substrate (AMMC or 3-[2-(N,N-diethyl-N-methylamino)ethyl]-7-methoxy-4-methylcoumarin) and recombinant human P450.

hERG = hERG (Homo sapiens, UniProt Q12809); assay: hERG assay: block of rubidium ion (Rb+) efflux from cells expressing hERG
Method: Human “ether-a-go-go” (hERG) is an ion channel. Blockade of this channel can be predictive of causing cardiac arrhythmias in humans. hERG assays were performed to measure the ability of a compound to block rubidium ion (Rb^+) efflux from cells expressing hERG. Cells were pre-loaded with Rb^+, incubated with test compound, and then exposed to a buffer that opens the channel and allows the efflux of ions. Compounds as powder were dissolved in 100% DMSO to prepare 100 mM stock solutions. […] The stocks were stored at 23° C.
The range of doses for the test compounds was 30 nM through 100,000 nM.

Male Sprague-Dawley rats = assay: Forced swim test in rats; format: in vivo, rat; conditions: 5 mg/kg IP
Method: When rats are placed in a cylinder of water from which they cannot escape, they will remain immobile in the water for the majority of the test.
Water was changed between trials, and the procedure involved a pretest and a 5-minute test separated by 24 hours. During the pretest, rats (adapted to the experimental room for no less than one hour) were placed in the cylinder for 15 minutes. Following this initial exposure, the rats were dried with towels and transferred to a “drying cage” situated under a warming lamp. […] The following day, rats were transferred to the experimental room and acclimated for at least one hour.
The rat was considered immobile when floating motionless or making only those movements necessary to keep its head above the surface of the water. Scores for each behavior (swimming or immobility) were expressed as total counts per 5-minute session. Statistical analysis was performed using ANOVA followed by the Tukey test for post-hoc comparisons.

T2 sequence (Q01959 whole entry): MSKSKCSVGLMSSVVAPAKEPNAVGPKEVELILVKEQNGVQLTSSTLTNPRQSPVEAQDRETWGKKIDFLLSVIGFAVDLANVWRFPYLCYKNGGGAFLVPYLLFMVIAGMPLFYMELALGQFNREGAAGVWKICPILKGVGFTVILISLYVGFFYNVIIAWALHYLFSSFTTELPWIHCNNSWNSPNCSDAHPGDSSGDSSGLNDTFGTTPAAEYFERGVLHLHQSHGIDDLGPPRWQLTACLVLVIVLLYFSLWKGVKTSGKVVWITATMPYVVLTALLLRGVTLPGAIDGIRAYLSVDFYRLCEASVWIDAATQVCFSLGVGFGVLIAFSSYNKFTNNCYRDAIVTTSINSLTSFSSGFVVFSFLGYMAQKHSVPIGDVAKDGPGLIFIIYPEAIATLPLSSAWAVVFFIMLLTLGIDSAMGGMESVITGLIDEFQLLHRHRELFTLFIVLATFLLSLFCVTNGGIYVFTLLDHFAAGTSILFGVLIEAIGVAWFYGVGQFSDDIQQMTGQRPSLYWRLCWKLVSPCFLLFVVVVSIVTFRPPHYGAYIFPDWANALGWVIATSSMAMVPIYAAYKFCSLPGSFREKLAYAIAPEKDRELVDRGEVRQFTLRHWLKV
T1 sequence (P31645 whole entry): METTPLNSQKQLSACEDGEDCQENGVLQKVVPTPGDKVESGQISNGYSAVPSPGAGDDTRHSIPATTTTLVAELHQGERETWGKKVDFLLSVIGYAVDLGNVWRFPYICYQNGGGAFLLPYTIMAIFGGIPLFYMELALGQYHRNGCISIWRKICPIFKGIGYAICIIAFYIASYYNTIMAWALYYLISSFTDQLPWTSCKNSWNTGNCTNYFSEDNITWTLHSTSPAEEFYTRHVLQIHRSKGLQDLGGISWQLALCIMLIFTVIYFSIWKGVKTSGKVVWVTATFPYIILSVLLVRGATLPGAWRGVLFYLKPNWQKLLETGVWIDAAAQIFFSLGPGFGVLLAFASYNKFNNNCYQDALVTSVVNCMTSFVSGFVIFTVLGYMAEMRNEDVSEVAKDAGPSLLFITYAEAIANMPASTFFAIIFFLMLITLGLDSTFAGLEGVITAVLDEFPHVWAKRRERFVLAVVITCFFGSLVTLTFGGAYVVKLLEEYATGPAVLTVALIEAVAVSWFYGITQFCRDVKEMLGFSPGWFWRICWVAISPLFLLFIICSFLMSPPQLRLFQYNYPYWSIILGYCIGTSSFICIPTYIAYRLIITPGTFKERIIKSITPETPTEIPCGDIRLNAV
Chain of hERG (Q12809 whole entry): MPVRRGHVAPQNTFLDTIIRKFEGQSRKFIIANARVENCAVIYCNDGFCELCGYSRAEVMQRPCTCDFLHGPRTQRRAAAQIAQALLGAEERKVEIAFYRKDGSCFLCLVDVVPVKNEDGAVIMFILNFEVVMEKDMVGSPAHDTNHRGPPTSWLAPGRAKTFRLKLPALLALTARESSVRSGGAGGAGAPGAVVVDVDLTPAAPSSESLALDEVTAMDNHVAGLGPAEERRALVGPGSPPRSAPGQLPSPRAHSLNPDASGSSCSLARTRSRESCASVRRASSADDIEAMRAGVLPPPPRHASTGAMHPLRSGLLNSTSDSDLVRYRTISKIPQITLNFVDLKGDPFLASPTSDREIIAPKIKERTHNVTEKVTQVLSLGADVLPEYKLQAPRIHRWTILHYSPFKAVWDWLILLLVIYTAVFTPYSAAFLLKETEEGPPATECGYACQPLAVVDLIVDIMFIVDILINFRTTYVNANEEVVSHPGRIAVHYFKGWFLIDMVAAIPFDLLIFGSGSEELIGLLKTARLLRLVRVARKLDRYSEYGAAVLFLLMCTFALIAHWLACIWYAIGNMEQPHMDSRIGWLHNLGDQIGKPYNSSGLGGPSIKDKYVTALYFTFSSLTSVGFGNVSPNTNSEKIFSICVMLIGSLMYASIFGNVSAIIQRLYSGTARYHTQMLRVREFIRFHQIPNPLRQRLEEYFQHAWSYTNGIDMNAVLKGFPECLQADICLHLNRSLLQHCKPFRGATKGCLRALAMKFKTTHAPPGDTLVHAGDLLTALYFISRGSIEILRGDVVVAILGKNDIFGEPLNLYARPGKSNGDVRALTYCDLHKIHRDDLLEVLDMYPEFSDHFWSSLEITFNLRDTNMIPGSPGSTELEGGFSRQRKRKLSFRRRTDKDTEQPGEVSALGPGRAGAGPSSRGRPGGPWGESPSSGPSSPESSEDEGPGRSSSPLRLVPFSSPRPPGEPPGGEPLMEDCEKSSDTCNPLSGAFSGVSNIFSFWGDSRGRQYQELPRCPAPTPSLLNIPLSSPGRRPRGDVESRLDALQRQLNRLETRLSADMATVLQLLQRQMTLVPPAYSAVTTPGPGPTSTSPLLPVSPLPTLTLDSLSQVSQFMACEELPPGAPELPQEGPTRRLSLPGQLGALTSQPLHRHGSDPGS
Chain of human dopamine transporter (Q01959 whole entry): as the sequence (Q01959 whole entry) above
T7 sequence (P10635 whole entry): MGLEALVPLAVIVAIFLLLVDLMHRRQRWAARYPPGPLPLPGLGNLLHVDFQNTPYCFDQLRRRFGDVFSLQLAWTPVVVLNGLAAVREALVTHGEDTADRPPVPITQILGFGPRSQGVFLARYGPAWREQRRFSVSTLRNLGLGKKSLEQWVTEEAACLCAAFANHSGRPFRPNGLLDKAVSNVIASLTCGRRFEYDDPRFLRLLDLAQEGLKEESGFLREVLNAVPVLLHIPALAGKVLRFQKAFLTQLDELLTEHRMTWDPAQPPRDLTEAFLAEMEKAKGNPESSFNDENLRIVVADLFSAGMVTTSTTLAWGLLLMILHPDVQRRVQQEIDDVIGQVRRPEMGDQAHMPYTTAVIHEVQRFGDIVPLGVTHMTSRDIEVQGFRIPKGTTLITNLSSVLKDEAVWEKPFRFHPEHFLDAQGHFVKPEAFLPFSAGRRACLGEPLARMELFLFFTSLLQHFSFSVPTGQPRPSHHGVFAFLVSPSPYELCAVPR
T5 sequence (P23977 whole entry): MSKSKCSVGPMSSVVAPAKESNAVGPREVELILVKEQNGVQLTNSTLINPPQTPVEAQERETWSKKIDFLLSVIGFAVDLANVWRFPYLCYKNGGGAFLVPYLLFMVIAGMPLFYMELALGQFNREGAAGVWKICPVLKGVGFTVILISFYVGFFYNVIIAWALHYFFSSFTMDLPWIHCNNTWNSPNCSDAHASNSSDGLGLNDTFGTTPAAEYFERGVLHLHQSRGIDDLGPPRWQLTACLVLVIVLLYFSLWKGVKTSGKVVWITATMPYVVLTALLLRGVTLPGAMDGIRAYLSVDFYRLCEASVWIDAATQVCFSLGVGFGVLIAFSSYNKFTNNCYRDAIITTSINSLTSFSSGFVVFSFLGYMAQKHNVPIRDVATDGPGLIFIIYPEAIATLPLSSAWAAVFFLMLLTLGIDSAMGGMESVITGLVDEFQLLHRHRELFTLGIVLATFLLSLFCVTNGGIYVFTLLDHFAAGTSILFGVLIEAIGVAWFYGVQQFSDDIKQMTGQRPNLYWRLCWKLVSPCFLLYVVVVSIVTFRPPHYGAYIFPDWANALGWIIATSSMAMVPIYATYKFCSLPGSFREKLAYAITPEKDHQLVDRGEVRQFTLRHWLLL
Chain of human serotonin transporter (P31645 whole entry): as the sequence (P31645 whole entry) above
T3 sequence (P31652 whole entry): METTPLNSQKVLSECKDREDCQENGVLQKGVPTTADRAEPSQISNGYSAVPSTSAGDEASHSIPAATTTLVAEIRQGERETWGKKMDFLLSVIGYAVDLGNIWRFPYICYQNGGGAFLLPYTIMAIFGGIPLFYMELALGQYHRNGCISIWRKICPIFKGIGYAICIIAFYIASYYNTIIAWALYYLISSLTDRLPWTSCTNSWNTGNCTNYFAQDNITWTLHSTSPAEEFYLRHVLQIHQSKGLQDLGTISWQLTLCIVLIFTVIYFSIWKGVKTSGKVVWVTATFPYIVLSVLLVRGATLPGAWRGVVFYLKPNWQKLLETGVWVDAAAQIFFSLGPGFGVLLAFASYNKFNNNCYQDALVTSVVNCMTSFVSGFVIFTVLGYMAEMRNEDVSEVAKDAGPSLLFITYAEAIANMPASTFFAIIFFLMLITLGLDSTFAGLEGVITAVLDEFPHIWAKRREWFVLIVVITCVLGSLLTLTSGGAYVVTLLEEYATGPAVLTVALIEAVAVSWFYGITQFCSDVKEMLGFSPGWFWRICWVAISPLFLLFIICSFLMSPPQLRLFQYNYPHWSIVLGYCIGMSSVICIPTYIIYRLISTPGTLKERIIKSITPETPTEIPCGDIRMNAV

## CNCC(c1ccc2ccccc2c1)C(OC)c1ccccc1 (racemic) [MCJ001-OMe-(±)-SR, (2R,3S/2S,3R)-3-methoxy-N-methyl-2-(naphthalen-2-yl)-3-phenylpropan-1-amine]
[1]; Geometric Mean ± SEM, HCl salts, read-out: Equilibrium Dissociation Constant (KD) for Transporter Binding, hSERT (S)
  Kd: 710 ± 50 nM
[2]; Geometric Mean ± SEM, HCl salts, read-out: Equilibrium Dissociation Constant (KD) for Transporter Binding, hDAT (D)
  Kd: 600 ± 100 nM
hSERT, hNET, hDAT
  Potency (rank-order of potency of binding; S = hSERT, N = hNET, D = hDAT): N = D > S
  Potency Range (difference between most potent and least potent binding): 1.2 fold
[3]
  Potency (rank order, transport into cells expressing human transporters): N > S > D
[4]
  Ki: 90 ± 36 nM
[5]
  Ki: 210 ± 30 nM
[6]
  Ki: 1030 ± 30 nM
[7]
  Potency (rank order, transport into rat brain synaptosomal preparations): S > N > D
[8]
  Ki: 20 ± 1 nM
[9]
  Ki: 2400 nM
[10]
  Ki: 60 ± 7 nM

## CNC[C@H](c1ccc2ccccc2c1)[C@H](F)c1ccccc1 [MCJ001-F-SS, (2S,3S)-3-fluoro-N-methyl-2-(naphthalen-2-yl)-3-phenylpropan-1-amine]
[1]
  Kd: 0.82 ± 0.09 nM
[1]; in words
  Binding at hSERT compared to PRC200-SS: greater binding at hSERT
[11]
  Kd: 1.3 ± 0.2 nM
[2]
  Kd: 23.5 ± 0.9 nM
[2]; in words
  Binding at hDAT compared to PRC200-SS: Enhanced binding to hDAT
hSERT, hNET, hDAT
  Potency (rank-order of potency of binding; S = hSERT, N = hNET, D = hDAT): S > N > D
  Potency Range (difference between most potent and least potent binding): 29 fold
CYP2D6
  IC50: 60 nM
hERG
  IC50: 51800 nM
hERG; in words
  Blocking of hERG channel compared with PRC200-SS: weaker than PRC200-SS at blocking this channel
Male Sprague-Dawley rats
  Immobility in forced swim test vs saline: statistically (P<0.04) less immobility
  Swimming in forced swim test vs saline: statistically (P<0.04) more swimming behavior
Male Sprague-Dawley rats; FIG. 12A
  Antidepressant activity in forced swim test compared with imipramine (15 mg/kg IP): antidepressant activity that was similar to that observed in rats treated with the positive control

Reference: US8440724B2, “Inhibiting neurotransmitter reuptake” (Mayo Foundation for Medical Education and Research, priority 2008, dated 2013)
